Assay results taken from the kinase profiling compilation of Christmann-Franck et al. (2016).

Key:
Experiment in all cases: radiometric filter-binding kinase assay
NEK6 (human) = NEK6 (human) (UniProt Q9HC98)
SRPK1 (human) = SRPK1 (human) (UniProt Q96SB4)
MAPK13 (human) = MAPK13 (human) (UniProt O15264)
INSRR (human) = INSRR (human) (UniProt P14616)
FGFR1 (human) = FGFR1 (human) (UniProt P11362); details: compound 10.0 µM
DYRK3 (human) = DYRK3 (human) (UniProt O43781)
MYLK (human) = MYLK (human) (UniProt Q15746)
Chain of MYLK (human) (Q15746 whole entry, looked up): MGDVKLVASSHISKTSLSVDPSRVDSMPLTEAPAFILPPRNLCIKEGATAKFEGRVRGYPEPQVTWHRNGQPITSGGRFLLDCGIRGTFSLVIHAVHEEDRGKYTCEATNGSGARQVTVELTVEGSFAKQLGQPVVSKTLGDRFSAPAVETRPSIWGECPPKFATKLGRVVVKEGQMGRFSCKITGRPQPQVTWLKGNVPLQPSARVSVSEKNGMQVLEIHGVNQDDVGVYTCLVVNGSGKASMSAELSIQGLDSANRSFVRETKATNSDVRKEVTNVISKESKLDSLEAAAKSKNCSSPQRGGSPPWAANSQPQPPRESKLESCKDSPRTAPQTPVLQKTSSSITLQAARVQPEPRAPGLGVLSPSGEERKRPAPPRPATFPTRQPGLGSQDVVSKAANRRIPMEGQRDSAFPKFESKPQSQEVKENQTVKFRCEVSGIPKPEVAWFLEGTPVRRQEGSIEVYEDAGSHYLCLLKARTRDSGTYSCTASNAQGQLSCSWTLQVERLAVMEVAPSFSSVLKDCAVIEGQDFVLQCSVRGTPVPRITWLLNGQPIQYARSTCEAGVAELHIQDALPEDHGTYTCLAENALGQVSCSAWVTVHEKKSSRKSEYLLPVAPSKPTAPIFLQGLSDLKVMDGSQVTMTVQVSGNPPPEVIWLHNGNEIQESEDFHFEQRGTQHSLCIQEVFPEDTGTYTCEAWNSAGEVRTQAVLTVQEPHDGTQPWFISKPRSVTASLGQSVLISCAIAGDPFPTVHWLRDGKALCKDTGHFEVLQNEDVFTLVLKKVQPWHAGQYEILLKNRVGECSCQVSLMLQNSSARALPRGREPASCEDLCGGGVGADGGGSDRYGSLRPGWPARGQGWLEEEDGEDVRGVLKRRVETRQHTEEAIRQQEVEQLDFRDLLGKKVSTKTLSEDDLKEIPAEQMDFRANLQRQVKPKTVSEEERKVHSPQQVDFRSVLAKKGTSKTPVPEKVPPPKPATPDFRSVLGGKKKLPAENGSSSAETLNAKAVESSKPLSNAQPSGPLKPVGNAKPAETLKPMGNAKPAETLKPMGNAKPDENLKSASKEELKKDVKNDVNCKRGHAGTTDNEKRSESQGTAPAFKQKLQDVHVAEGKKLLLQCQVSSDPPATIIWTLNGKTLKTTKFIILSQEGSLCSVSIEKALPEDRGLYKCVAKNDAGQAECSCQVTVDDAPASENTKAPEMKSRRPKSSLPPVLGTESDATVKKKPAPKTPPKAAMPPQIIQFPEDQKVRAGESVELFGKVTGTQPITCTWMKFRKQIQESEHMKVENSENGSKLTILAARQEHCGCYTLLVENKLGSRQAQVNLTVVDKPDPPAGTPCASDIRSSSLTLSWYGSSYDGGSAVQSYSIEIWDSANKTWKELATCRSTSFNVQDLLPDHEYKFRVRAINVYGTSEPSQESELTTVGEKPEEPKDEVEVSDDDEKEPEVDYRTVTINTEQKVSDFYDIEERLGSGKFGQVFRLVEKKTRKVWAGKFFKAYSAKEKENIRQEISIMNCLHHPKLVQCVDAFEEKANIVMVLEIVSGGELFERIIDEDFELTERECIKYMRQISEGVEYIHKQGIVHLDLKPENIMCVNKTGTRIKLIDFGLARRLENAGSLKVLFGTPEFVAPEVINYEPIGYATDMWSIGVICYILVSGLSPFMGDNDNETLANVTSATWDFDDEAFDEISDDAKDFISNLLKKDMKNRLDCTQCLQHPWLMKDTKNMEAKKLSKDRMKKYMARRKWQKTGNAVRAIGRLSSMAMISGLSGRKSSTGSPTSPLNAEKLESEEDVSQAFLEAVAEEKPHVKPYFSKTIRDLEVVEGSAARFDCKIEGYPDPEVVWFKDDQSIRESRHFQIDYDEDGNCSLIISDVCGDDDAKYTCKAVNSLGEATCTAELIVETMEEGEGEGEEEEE

MARK1 (human) = MARK1 (human) (UniProt Q9P0L2)
GSK3B (human) = GSK3B (human) (UniProt P49841)
INSR (human) = INSR (human) (UniProt P06213)
[1] = system: PAK2 (human), Q13177 [T402E]
MAPK11 (human) = MAPK11 (human) (UniProt Q15759)
MARK2 (human) = MARK2 (human) (UniProt Q7KZI7)
MAP3K9 (human) = MAP3K9 (human) (UniProt P80192)
PKN2 (human) = PKN2 (human) (UniProt Q16513); details: compound 1.0 µM
[2] = system: RPS6KB1 (human), P23443 [T412E]
NEK2 (human) = NEK2 (human) (UniProt P51955)
TTK (human) = TTK (human) (UniProt P33981)
PIM3 (human) = PIM3 (human) (UniProt Q86V86)
[3] = biological target: STK11 CAB39 STRADA (human) (UniProt Q9Y376+Q7RTN6+Q15831)
Chain of STK11 CAB39 STRADA (human) (Q15831 whole entry, looked up): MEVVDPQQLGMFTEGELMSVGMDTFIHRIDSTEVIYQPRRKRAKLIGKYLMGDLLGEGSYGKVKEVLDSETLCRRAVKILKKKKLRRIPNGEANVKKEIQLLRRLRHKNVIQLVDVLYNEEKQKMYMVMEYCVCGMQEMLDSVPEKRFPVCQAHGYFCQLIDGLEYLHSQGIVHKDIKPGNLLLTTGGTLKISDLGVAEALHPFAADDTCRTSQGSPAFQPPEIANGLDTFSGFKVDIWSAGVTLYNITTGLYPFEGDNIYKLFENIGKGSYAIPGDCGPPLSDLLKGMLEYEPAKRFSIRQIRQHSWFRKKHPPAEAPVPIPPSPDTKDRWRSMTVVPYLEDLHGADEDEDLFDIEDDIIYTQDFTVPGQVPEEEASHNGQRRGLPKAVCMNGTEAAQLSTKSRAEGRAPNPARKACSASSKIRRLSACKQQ
Chain of STK11 CAB39 STRADA (human) (Q7RTN6 whole entry, looked up): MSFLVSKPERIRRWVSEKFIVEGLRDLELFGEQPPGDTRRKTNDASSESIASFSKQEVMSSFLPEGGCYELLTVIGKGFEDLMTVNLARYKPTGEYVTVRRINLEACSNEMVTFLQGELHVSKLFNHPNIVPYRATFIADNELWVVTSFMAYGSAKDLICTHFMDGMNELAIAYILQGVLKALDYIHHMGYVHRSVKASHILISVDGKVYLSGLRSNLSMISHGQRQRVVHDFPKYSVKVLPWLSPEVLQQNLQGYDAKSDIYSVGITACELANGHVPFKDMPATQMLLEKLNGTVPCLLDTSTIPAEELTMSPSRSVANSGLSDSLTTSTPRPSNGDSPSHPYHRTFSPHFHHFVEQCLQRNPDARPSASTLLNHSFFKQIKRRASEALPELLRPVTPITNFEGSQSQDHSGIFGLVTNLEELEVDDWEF
Chain of STK11 CAB39 STRADA (human) (Q9Y376 whole entry, looked up): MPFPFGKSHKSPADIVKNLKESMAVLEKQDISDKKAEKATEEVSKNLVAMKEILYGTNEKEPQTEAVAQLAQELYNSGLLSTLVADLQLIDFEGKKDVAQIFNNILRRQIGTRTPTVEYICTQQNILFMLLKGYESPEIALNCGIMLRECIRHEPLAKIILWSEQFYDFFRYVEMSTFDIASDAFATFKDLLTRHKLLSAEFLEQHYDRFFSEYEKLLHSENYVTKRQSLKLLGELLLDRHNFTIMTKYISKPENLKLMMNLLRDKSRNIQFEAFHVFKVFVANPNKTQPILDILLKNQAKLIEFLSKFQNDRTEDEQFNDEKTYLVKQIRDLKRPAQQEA

CSNK2A1 (human) = CSNK2A1 (human) (UniProt P68400)
MAP2K6 (human) = MAP2K6 (human) (UniProt P52564)
[4] = system: AKT1 (human), P31749 [S473D]
LCK (mouse) = details: accession and sequence are those of the human protein
MAPK10 (human) = MAPK10 (human) (UniProt P53779)
PIM2 (human) = PIM2 (human) (UniProt Q9P1W9)
PHKG1 (human) = PHKG1 (human) (UniProt Q16816)
Chain of PHKG1 (human) (Q16816 whole entry, looked up): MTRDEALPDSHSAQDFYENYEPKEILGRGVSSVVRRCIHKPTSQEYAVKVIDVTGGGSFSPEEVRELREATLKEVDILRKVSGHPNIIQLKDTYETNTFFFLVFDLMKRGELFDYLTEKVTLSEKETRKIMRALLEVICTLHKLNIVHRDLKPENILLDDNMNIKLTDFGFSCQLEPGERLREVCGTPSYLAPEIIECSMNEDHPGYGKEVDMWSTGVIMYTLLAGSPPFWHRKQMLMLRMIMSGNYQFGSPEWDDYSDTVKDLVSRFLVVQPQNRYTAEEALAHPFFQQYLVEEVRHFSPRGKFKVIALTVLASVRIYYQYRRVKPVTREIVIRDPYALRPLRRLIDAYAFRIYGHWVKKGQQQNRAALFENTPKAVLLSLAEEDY

MAP2K1 (human) = MAP2K1 (human) (UniProt Q02750); details: compound 1.0 µM
SYK (human) = SYK (human) (UniProt P43405)
EPHA2 (human) = EPHA2 (human) (UniProt P29317)
[5] = system: AKT2 (human), P31751 [S474D]
EPHB1 (human) = EPHB1 (human) (UniProt P54762)
MKNK1 (human) = MKNK1 (human) (UniProt Q9BUB5)
ROCK2 (rat) = details: accession and sequence are those of the human protein
IRAK4 (human) = IRAK4 (human) (UniProt Q9NWZ3)
TBK1 (human) = TBK1 (human) (UniProt Q9UHD2); details: compound 1.0 µM

Chain of NEK6 (human) (Q9HC98 whole entry, looked up): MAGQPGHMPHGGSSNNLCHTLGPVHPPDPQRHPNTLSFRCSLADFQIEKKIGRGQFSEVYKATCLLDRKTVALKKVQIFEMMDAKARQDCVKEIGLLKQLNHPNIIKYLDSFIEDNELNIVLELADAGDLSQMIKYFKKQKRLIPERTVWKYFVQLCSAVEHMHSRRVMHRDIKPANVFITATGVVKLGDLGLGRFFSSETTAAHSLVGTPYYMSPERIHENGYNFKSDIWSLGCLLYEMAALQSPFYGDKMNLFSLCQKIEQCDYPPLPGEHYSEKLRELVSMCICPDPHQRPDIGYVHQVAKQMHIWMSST
Chain of SRPK1 (human) (Q96SB4 whole entry, looked up): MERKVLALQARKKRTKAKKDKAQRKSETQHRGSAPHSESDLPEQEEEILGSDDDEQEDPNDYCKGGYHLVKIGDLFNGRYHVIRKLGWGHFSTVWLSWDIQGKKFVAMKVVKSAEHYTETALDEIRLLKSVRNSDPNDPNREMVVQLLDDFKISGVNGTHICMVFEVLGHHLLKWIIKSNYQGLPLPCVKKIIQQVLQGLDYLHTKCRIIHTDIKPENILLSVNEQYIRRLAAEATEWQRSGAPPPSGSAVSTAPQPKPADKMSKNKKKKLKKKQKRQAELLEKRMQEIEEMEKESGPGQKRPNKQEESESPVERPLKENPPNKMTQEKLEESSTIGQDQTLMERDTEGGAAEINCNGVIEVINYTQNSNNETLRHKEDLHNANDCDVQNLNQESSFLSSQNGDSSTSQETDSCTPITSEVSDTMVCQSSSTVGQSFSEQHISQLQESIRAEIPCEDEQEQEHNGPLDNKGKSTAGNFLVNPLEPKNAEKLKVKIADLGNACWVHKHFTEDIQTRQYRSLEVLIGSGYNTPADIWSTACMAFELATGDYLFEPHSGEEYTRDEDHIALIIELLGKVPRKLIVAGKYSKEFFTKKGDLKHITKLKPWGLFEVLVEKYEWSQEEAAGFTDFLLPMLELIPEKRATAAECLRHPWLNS

Structure (SMILES): Cc1nc(-c2ccc(OCC(C)C)c(C#N)c2)sc1C(=O)O
- residual activity (NEK6 (human); compound 1.0 µM): 100%
- residual activity (NEK6 (human); compound 10.0 µM): 99%
- residual activity (SRPK1 (human); compound 1.0 µM): 99%
- residual activity (SRPK1 (human); compound 10.0 µM): 89%
- residual activity (MAPK13 (human); compound 1.0 µM): 103%
- residual activity (MAPK13 (human); compound 10.0 µM): 97%
- residual activity (INSRR (human); compound 1.0 µM): 66%
- residual activity (INSRR (human); compound 10.0 µM): 68%
- residual activity (FGFR1 (human)): 103%
- residual activity (DYRK3 (human); compound 1.0 µM): 84%
- residual activity (DYRK3 (human); compound 10.0 µM): 65%
- residual activity (MYLK (human); compound 1.0 µM): 101%
- residual activity (MYLK (human); compound 10.0 µM): 79%
- residual activity (MARK1 (human); compound 1.0 µM): 96%
- residual activity (MARK1 (human); compound 10.0 µM): 104%
- residual activity (GSK3B (human); compound 1.0 µM): 90%
- residual activity (GSK3B (human); compound 10.0 µM): 74%
- residual activity (INSR (human); compound 1.0 µM): 102%
- residual activity (INSR (human); compound 10.0 µM): 96%
- residual activity ([1]; compound 1.0 µM): 95%
- residual activity ([1]; compound 10.0 µM): 90%
- residual activity (MAPK11 (human); compound 1.0 µM): 84%
- residual activity (MAPK11 (human); compound 10.0 µM): 91%
- residual activity (MARK2 (human); compound 1.0 µM): 60%
- residual activity (MARK2 (human); compound 10.0 µM): 59%
- residual activity (MAP3K9 (human); compound 1.0 µM): 69%
- residual activity (MAP3K9 (human); compound 10.0 µM): 47%
- residual activity (PKN2 (human)): 120%
- residual activity ([2]; compound 1.0 µM): 99%
- residual activity ([2]; compound 10.0 µM): 99%
- residual activity (NEK2 (human); compound 1.0 µM): 89%
- residual activity (NEK2 (human); compound 10.0 µM): 98%
- residual activity (TTK (human); compound 1.0 µM): 89%
- residual activity (TTK (human); compound 10.0 µM): 87%
- residual activity (PIM3 (human); compound 1.0 µM): 66%
- residual activity (PIM3 (human); compound 10.0 µM): 19%
- residual activity ([3]; compound 1.0 µM): 86%
- residual activity ([3]; compound 10.0 µM): 85%
- residual activity (CSNK2A1 (human); compound 1.0 µM): 87%
- residual activity (CSNK2A1 (human); compound 10.0 µM): 71%
- residual activity (MAP2K6 (human); compound 1.0 µM): 85%
- residual activity (MAP2K6 (human); compound 10.0 µM): 81%
- residual activity ([4]; compound 1.0 µM): 97%
- residual activity ([4]; compound 10.0 µM): 95%
- residual activity (LCK (mouse); compound 1.0 µM): 110%
- residual activity (LCK (mouse); compound 10.0 µM): 102%
- residual activity (MAPK10 (human); compound 1.0 µM): 99%
- residual activity (MAPK10 (human); compound 10.0 µM): 92%
- residual activity (PIM2 (human); compound 1.0 µM): 110%
- residual activity (PIM2 (human); compound 10.0 µM): 88%
- residual activity (PHKG1 (human); compound 1.0 µM): 85%
- residual activity (PHKG1 (human); compound 10.0 µM): 83%
- residual activity (MAP2K1 (human)): 85%
- residual activity (SYK (human); compound 1.0 µM): 158%
- residual activity (SYK (human); compound 10.0 µM): 117%
- residual activity (EPHA2 (human); compound 1.0 µM): 104%
- residual activity (EPHA2 (human); compound 10.0 µM): 89%
- residual activity ([5]; compound 1.0 µM): 109%
- residual activity ([5]; compound 10.0 µM): 108%
- residual activity (EPHB1 (human); compound 1.0 µM): 118%
- residual activity (EPHB1 (human); compound 10.0 µM): 103%
- residual activity (MKNK1 (human); compound 1.0 µM): 106%
- residual activity (MKNK1 (human); compound 10.0 µM): 95%
- residual activity (ROCK2 (rat); compound 1.0 µM): 96%
- residual activity (ROCK2 (rat); compound 10.0 µM): 80%
- residual activity (IRAK4 (human); compound 1.0 µM): 90%
- residual activity (IRAK4 (human); compound 10.0 µM): 98%
- residual activity (TBK1 (human)): 127%
